Holding throughout (format): in vivo, rabbit
Assay [1] has as its system six-month old female rabbits. The assay is described as follows: Bone mineral densities of tibiae of rabbits (Working Example 2). Conditions: 4 weeks; for Bone mineral densities in proximal part (1/5 site) of the tibiae: 140 μg/kg per week; for Bone mineral densities in the proximal part (1/5 site) of the tibiae: weekly dosage 140 μg/kg. How it is done: (§1) To evaluate the influences of the administration frequencies of teriparatide on the bone metabolism and the bone tissue morphology, six-month old female rabbits were subcutaneously administered with an agent in a manner that a weekly dosage of teriparatide was adjusted to 140 μg/kg at a frequency of once a week, twice a week or seven times a week over 4 weeks, or with a control drug without containing teriparatide at a frequency of seven times a week over 4 weeks (Table 2-54). Also, the bone mineral density and the bone strength of the tibiae were measured. The teriparatide solution which was administered was appropriately prepared by dissolving teriparatide acetate in a water for injection, filtering the solution, filling the filtrate in a vial, freeze-drying to give a preparation, and dissolving the preparation in a physiological saline upon use.
The bone mineral densities of the tibiae were analyzed in divided regions.

Assay [2] relates to six-month old female rabbits. The assay is described as follows: Bone tissue morphology of diaphysis of tibiae of rabbits. How it is done:
as §1

Assay [3] relates to six-month old female rabbits. The assay is described as follows: Bone strength of tibiae of rabbits, three-point bending strength. The settings on record: for Maximum load, bone strength of tibiae: 140 μg/kg per week, subcutaneous, 4 weeks; for Maximum load, three-point bending strength of the tibiae: versus control group. The protocol:
as §1
Three-point bending strength of the tibiae collected after the end of the administration period was measured.

The mark [4] stands for this setting: group administered twice a week.
Setting [5] is: group administered seven times a week.

This is an account of results in patent US11541104B2, “Method for preventing or treating osteoporosis, characterized by administering teriparatide or salt thereof at a frequency of twice a week” (ASAHI KASEI PHARMA CORPORATION, priority 2018, dated 2023).

SMILES strings stand for the structures.

With `CC[C@H](C)[C@H](NC(=O)[C@H](CCC(=O)O)NC(=O)[C@H](CO)NC(=O)[C@@H](NC(=O)[C@@H](N)CO)C(C)C)C(=O)N[C@@H](CCC(N)=O)C(=O)N[C@@H](CC(C)C)C(=O)N[C@@H](CCSC)C(=O)N[C@@H](Cc1cnc[nH]1)C(=O)N[C@@H](CC(N)=O)C(=O)N[C@@H](CC(C)C)C(=O)NCC(=O)N[C@@H](CCCCN)C(=O)N[C@@H](Cc1cnc[nH]1)C(=O)N[C@@H](CC(C)C)C(=O)N[C@@H](CC(N)=O)C(=O)N[C@@H](CO)C(=O)N[C@@H](CCSC)C(=O)N[C@@H](CCC(=O)O)C(=O)N[C@@H](CCCN=C(N)N)C(=O)N[C@H](C(=O)N[C@@H](CCC(=O)O)C(=O)N[C@@H](Cc1c[nH]c2ccccc12)C(=O)N[C@@H](CC(C)C)C(=O)N[C@@H](CCCN=C(N)N)C(=O)N[C@@H](CCCCN)C(=O)N[C@@H](CCCCN)C(=O)N[C@@H](CC(C)C)C(=O)N[C@@H](CCC(N)=O)C(=O)N[C@@H](CC(=O)O)C(=O)N[C@H](C(=O)N[C@@H](Cc1cnc[nH]1)C(=O)N[C@@H](CC(N)=O)C(=O)N[C@@H](Cc1ccccc1)C(=O)O)C(C)C)C(C)C` [teriparatide], the “Bone mineral densities in proximal part (1/5 site) of the tibiae” value in assay [1] (Group administered once a week, subcutaneous) came out at 272.5 ± 13.6 mg/cm^2; in assay [1] (Group administered twice a week, subcutaneous) it was 278.8 ±9.8 mg/cm^2. Moreover, the “Bone mineral densities in the proximal part (1/5 site) of the tibiae” value in assay [1] (setting [4]) was “higher value than that of the group administered once a week”; in assay [1] (subcutaneous, as compared to control group), “remarkably increased”. The “Bone tissue morphology of diaphysis of tibiae” value in assay [2] (group administered once a week) is “none of these findings were observed”; in assay [2] (setting [5]), “formation of trabecular bones on the endocortical surfaces, a large number of intracortical voids (increase of cortical porosity), and disorderedness in a lamellar structure were observed”; in assay [2] (setting [4]) it was “none of these findings were observed”. The “Maximum load, bone strength of tibiae” value in assay [3] (Group administered once a week) is 583.81 N; in assay [3] (Group administered seven times a week), 656.09 N; in assay [3] (Group administered twice a week) it was 624.41 N. Further, the “Maximum load, three-point bending strength of the tibiae” value in assay [3] (setting [5]) and in assay [3] (setting [4]) was “higher values” throughout.
